From PubChem BioAssay AID256 (DTP/NCI, 2004)
Where “and” joins values, the source holds several entries; their conditions need not be identical. Equal values may be shown once. Inconclusive results and toxic doses are left out. The calls were made as follows: active = survival T/C of 150% or more; inactive = T/C below 125% in these data.

System: CD2F1 mice, L1210 leukemia ip, survival T/C
Assay: NCI In Vivo Anticancer Drug Screen. Data for tumor model L1210 Leukemia (intraperitoneal) in CD2F1 (CDF1) mice
Conditions: higher = longer survival
Outline: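 Read-out first: treated-group measurement over vehicle-control measurement, expressed as a ratio. Animals bore a transplanted tumor line and were dosed with compound or vehicle.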

[1] = endpoint: mean survival time, dose: 12.5 mg/kg/injection, schedule: Q01DX009 (ip), vehicle: saline with Tween-80
[2] = endpoint: mean survival time, dose: 25.0 mg/kg/injection, schedule: Q01DX009 (ip), vehicle: saline with Tween-80
[3] = endpoint: mean survival time, dose: 50.0 mg/kg/injection, schedule: Q01DX009 (ip), vehicle: saline with Tween-80
[4] = endpoint: mean survival time, dose: 100.0 mg/kg/injection, schedule: Q01DX009 (ip), vehicle: saline with Tween-80
[5] = endpoint: mean survival time, dose: 200.0 mg/kg/injection, schedule: Q01DX009 (ip), vehicle: saline with Tween-80
[6] = endpoint: mean survival time, dose: 400.0 mg/kg/injection, schedule: Q01DX009 (ip), vehicle: saline with Tween-80
[7] = endpoint: mean survival time, dose: 200.0 mg/kg/injection, schedule: Q01DX001 (ip), vehicle: saline with Tween-80
[8] = endpoint: mean survival time, dose: 400.0 mg/kg/injection, schedule: Q01DX001 (ip), vehicle: saline with Tween-80
[9] = endpoint: mean survival time, dose: 100.0 mg/kg/injection, schedule: Q04DX003 (ip), vehicle: saline with Tween-80
[10] = endpoint: mean survival time, dose: 200.0 mg/kg/injection, schedule: Q04DX003 (ip), vehicle: saline with Tween-80
[11] = endpoint: mean survival time, dose: 50.0 mg/kg/injection, schedule: Q04DX003 (ip), vehicle: saline with Tween-80

Measured: T/C

NC(=S)N/N=C\c1ncccc1OCc1cccc(N)c1
inactive: endpoint: mean survival time, dose: 12.5 mg/kg/injection, schedule: Q01DX009 (ip), vehicle: distilled water + Tween-80 104 % of control | [1] 100 % of control | endpoint: mean survival time, dose: 25.0 mg/kg/injection, schedule: Q01DX009 (ip), vehicle: distilled water + Tween-80 113 % of control and 104 % of control | [2] 116 % of control and 100 % of control and 107 % of control | endpoint: mean survival time, dose: 50.0 mg/kg/injection, schedule: Q01DX009 (ip), vehicle: distilled water + Tween-80 119 % of control and 111 % of control | [3] 101 % of control and 103 % of control and 110 % of control | endpoint: mean survival time, dose: 100.0 mg/kg/injection, schedule: Q01DX009 (ip), vehicle: distilled water + Tween-80 113 % of control and 119 % of control | [4] 117 % of control and 100 % of control and 105 % of control | endpoint: mean survival time, dose: 200.0 mg/kg/injection, schedule: Q01DX009 (ip), vehicle: distilled water + Tween-80 122 % of control | [5] 114 % of control and 117 % of control and 108 % of control | endpoint: mean survival time, dose: 400.0 mg/kg/injection, schedule: Q01DX009 (ip), vehicle: distilled water + Tween-80 117 % of control | [6] 115 % of control and 108 % of control | endpoint: median survival time, dose: 50.0 mg/kg/injection, schedule: Q01DX009 (ip), vehicle: distilled water + Tween-80 109 % of control | endpoint: median survival time, dose: 100.0 mg/kg/injection, schedule: Q01DX009 (ip), vehicle: distilled water + Tween-80 115 % of control | endpoint: median survival time, dose: 200.0 mg/kg/injection, schedule: Q01DX009 (ip), vehicle: distilled water + Tween-80 118 % of control | endpoint: median survival time, dose: 400.0 mg/kg/injection, schedule: Q01DX009 (ip), vehicle: distilled water + Tween-80 124 % of control

NC(CCl)=NCCc1ccsc1
inactive: endpoint: mean survival time, dose: 25.0 mg/kg/injection, schedule: Q04DX002 (ip), vehicle: saline 95 % of control | endpoint: mean survival time, dose: 50.0 mg/kg/injection, schedule: Q04DX002 (ip), vehicle: saline 106 % of control | endpoint: mean survival time, dose: 100.0 mg/kg/injection, schedule: Q04DX002 (ip), vehicle: saline 98 % of control and 112 % of control

NNC(=O)CCCCCCCCCCCCCCO
inactive: [7] 87 % of control | [8] 90 % of control

CCN(C(=O)Nc1ccc(OC)cc1)c1ccccc1
inactive: [9] 98 % of control | [10] 95 % of control

CC1(C)OC2CC3CC(OC3=O)C2O1 (stereo not given)
inactive: endpoint: mean survival time, dose: 100.0 mg/kg/injection, schedule: Q01DX001 (ip), vehicle: saline with Tween-80 107 % of control | [7] 97 % of control | [8] 107 % of control

CSc1nc(N)cc(N)n1
inactive: [4] 98 % of control | [9] 98 % of control | [5] 95 % of control | [10] 97 % of control | [6] 100 % of control | endpoint: mean survival time, dose: 400.0 mg/kg/injection, schedule: Q04DX003 (ip), vehicle: saline with Tween-80 102 % of control

COc1ccc(C2C3CCC(C3)C2N)cc1 (stereo not given)
inactive: endpoint: mean survival time, dose: 5.0 mg/kg/injection, schedule: Q01DX009 (ip), vehicle: saline 96 % of control | endpoint: mean survival time, dose: 10.0 mg/kg/injection, schedule: Q01DX009 (ip), vehicle: saline 96 % of control | endpoint: mean survival time, dose: 20.0 mg/kg/injection, schedule: Q01DX009 (ip), vehicle: saline 92 % of control | endpoint: mean survival time, dose: 25.0 mg/kg/injection, schedule: Q04DX003 (ip), vehicle: saline 101 % of control | endpoint: mean survival time, dose: 50.0 mg/kg/injection, schedule: Q04DX003 (ip), vehicle: saline 96 % of control | endpoint: mean survival time, dose: 100.0 mg/kg/injection, schedule: Q04DX003 (ip), vehicle: saline 90 % of control

C=CC#N
inactive: endpoint: mean survival time, dose: 12.5 mg/kg/injection, schedule: Q04DX003 (ip), vehicle: saline with Tween-80 105 % of control | endpoint: mean survival time, dose: 25.0 mg/kg/injection, schedule: Q04DX003 (ip), vehicle: saline with Tween-80 102 % of control | [11] 108 % of control

CCCN1COC(OCC)C(C)(C)C1 (stereo not given)
inactive: [1] 112 % of control | endpoint: mean survival time, dose: 12.5 mg/kg/injection, schedule: Q01DX009 (ip), vehicle: saline 91 % of control | [2] 100 % of control | endpoint: mean survival time, dose: 25.0 mg/kg/injection, schedule: Q01DX009 (ip), vehicle: saline 100 % of control | [3] 107 % of control | endpoint: mean survival time, dose: 50.0 mg/kg/injection, schedule: Q01DX009 (ip), vehicle: saline 103 % of control | [4] 114 % of control | endpoint: mean survival time, dose: 100.0 mg/kg/injection, schedule: Q01DX009 (ip), vehicle: saline 97 % of control | [5] 106 % of control | endpoint: mean survival time, dose: 200.0 mg/kg/injection, schedule: Q01DX009 (ip), vehicle: saline 109 % of control

CCOC(=O)c1c(C)nc(C)c(C(=O)OCC)c1-c1cccc([N+](=O)[O-])c1
inactive: [11] 97 % of control | [9] 105 % of control | [10] 103 % of control

C[N+](C)(Cc1ccccc1)C1c2ccccc2-c2ccc(Cl)cc21 (stereo not given)
inactive: endpoint: mean survival time, dose: 50.0 mg/kg/injection, schedule: Q04DX002 (ip), vehicle: saline with Tween-80 103 % of control
